What was measured:
[1] = test system: thymocytes; assay: Thymus weight and thymocyte subpopulations after oral dosing in C57BL/6 mice; format: in vivo; settings: mouse, in vivo, 100 mg/kg
Procedure: In addition, the total number and the fraction of the major thymocyte subpopulations including CD4^+CD8^+ (DP), CD4^+CD8^- (SP4^+) and CD4^-CD8^+ (SP8^+) were measured by cell surface staining followed by FACS analysis. […] The volume of cells was adjusted to 8 mls. Debris from the thymus was allowed to settle, and a 200 μl aliquot of cells was incubated with fluorescent antibodies to CD4 and CD8 for 15 minutes at room temperature. […] Before analytical flow cytometry was carried out (FACS Calibur, Becton Dickinson), Caltag counting beads (from Invitrogen) were added to allow absolute quantitation of cell number. Thymus subpopulations were determined after gating for live cells. […] Dexamethasone reproducibly induces rapid apoptosis of DP thymocytes and reduction of thymic mass ([…], Drupt et al. 2000; Zubkova, Mostowski et al. 2005).

[2] = target: T1, RORα (mRORα) (Mus musculus, UniProt P51448); assay: Transcriptional assay of RORα as GAL4 hybrid; format: cell-based; settings: same format as the GAL4-RORγ assay
T1 construct: mRORα (NR1F1, aa 266-523); expressed in transfected cells; host or cells: CHO cells, transient transfection
T1 sequence (P51448 266-523): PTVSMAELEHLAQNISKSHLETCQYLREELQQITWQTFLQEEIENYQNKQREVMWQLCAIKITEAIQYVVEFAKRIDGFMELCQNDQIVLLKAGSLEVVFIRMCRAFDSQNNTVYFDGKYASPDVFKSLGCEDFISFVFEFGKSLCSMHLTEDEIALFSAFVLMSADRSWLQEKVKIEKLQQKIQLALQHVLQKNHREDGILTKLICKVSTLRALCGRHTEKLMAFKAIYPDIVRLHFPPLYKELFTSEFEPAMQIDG
Procedure: (§1) This example also describes several additional tests that were commonly performed to confirm the authenticity of a hit to RORγ. These tests also verified the validity of the transcriptional and biochemical assays used. […] In some cases, close analogs of a confirmed hit were obtained by synthesis or purchase from a commercial source. The series of compounds related to the confirmed hit was then tested in the biochemical and transcriptional assays. The rank order of the potency of the compounds was then compared. […] The data imply in turn that the compounds are binding to the same binding pocket. […]
(§2) Four hours after transfection, cells were dislodged with trypsin and seeded into a 384-well plate at 8,000 cells/well using a Titertek Multidrop 384. […] After incubation for 2 hours at 37 degrees centigrade, the conversion of resazurin to resorufin was measured by fluorescence (excitation at 570 nm and emission at 615 nm). […] Percent viability was determined as 2 hour fluorescence, minus background at t=0 hours, normalized to DMSO controls. […] Luminescence is detected with a Victor 2-V plate reader (Perkin-Elmer) and normalized to luciferase activity of DMSO control wells alone.

[3] = test system: CHO cells; assay: Cytotoxicity in CHO cells (resazurin conversion); format: cell-based, Chinese Hamster
Procedure: Four hours after transfection, cells were dislodged with trypsin and seeded into a 384-well plate at 8,000 cells/well using a Titertek Multidrop 384. Edge effects within the 384-well plate were minimized by leaving plates at room temperature for 30 min so that cells plated evenly within each well (Lundholt, Scudder et al. 2003). Plates are maintained at 37° C. in a humidified atmosphere with 7% CO2 overnight. […] Approximately 40 hours later, cytotoxicity in the assay well was characterized by addition of the dye resazurin (O'Brien, Wilson et al. 2000) to a final concentration of 3 μM. After incubation for 2 hours at 37 degrees centigrade, the conversion of resazurin to resorufin was measured by fluorescence (excitation at 570 nm and emission at 615 nm). […] Percent viability was determined as 2 hour fluorescence, minus background at t=0 hours, normalized to DMSO controls. For detection of luciferase activity, media was removed from plates after the measurement of resazurin conversion, and SteadyLite luciferase reagent (Perkin-Elmer) was added (30 μl/well). Luminescence is detected with a Victor 2-V plate reader (Perkin-Elmer) and normalized to luciferase activity of DMSO control wells alone.

[4] = target: T2, SF-1 (human SF-1) (Homo sapiens, UniProt Q13285); assay: Transcriptional assay of SF-1 as GAL4 hybrid; format: cell-based; settings: same format as the GAL4-RORγ assay
T2 construct: human SF-1 (NR5A1, aa 198-462); expressed in transfected cells; host or cells: CHO cells, transient transfection
T2 sequence (Q13285 198-461 limits assumed): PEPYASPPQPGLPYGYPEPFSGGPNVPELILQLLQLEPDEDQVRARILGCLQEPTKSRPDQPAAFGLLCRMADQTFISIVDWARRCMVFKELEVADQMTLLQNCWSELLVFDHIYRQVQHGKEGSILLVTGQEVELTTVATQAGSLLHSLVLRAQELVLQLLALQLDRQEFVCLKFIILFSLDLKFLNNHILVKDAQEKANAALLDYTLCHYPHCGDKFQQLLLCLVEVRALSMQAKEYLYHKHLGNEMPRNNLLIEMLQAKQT
Procedure: as §1, §2

Row | Structure (SMILES) | Frequency of DP (% of total cells) [1] [%] | Total cells per spleen (×10^−6) DP [1] | Total cells per spleen (×10^−6) SP4 [1] | Total cells per spleen (×10^−6) SP8 [1] | effect on the transcription of RORα [2] | concentration not cytotoxic to CHO cells [3] [µM] | effect on the transcription of SF-1 [4]
1 | CCN(c1ccc(C(O)(C(F)(F)F)C(F)(F)F)cc1)S(=O)(=O)c1ccc([N+](=O)[O-])cc1 [OR-1050, N-Ethyl-4-nitro-N-[4-(2,2,2-trifluoro-1-hydroxy-1-trifluoromethyl-ethyl)-phenyl]-benzenesulfonamide] | 56.7 ± 3.1 | 61.5 ×10^−6 | 8.1 ×10^−6 | 2.5 ×10^−6 | no effects | 50 | no effects
2 | O=S(=O)(c1ccccc1)N(CC(F)(F)F)c1ccc(C(O)(C(F)(F)F)C(F)(F)F)cc1 [Compound T0901317, N-(2,2,2-Trifluoro-ethyl)-N-[4-(2,2,2-trifluoro-1-hydroxy-1-trifluoromethyl-ethyl)-phenyl]-benzenesulfonamide, reference compound] |  |  |  |  | no effects | < 10 | no effects

— patent publication US8389739B1, “Modulators of retinoid-related orphan receptor gamma” (Orphagen Pharmaceuticals, priority 2006, dated 2013)
